Source: patent publication US8772302B2, “GPR 119 agonists” (Cadila Healthcare Limited, priority 2009, dated 2014)
Like-named read-outs stand apart in the source and are kept apart here.

Legend:
[1] = target: T1, recombinant human GPR 119 receptor (Homo sapiens, UniProt Q8TDV5); test: cAMP assay in stable cell line expressing recombinant human GPR 119 receptor; assay type: cell-based; settings: intracellular cAMP
T1 construct: expressed in transfected cells
T1 sequence (Q8TDV5 1-335): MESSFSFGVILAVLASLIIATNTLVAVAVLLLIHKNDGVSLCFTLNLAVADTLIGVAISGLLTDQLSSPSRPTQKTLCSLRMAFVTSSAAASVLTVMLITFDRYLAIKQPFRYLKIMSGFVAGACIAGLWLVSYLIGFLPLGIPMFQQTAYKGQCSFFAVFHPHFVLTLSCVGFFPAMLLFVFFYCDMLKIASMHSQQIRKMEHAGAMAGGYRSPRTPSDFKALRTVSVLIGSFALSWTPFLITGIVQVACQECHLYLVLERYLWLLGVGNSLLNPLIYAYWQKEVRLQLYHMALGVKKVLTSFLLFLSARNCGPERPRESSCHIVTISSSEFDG
Source text: cAMP assay: A stable cell line expressing recombinant human GPR 119 receptor was established and used to investigate the efficacy of the compounds of the invention based on the intracellular levels of cyclic AMP (cAMP) using commercially available cAMP kits. Compounds of the invention produced a concentration dependent increase in cAMP level and EC50 values of representative compounds were provided in table 1.

Sprague Dawley rats = test: Feed intake in Sprague Dawley rats; assay type: in vivo, rat; settings: Rattus norvegicus, cumulative feed intake vs vehicle; for inhibition in vivo at 25 mg/kg: ip, intraperitoneal; for inhibition in vivo at 50 mg/kg: oral
Source text: In Vivo Efficacy Studies: Feed Intake in Sprague Dawley Rats:
Sprague Dawley rats of 6-8 week age are used for this experiment they are kept for acclimatization in reversed light/dark cycle for 15 days. Animals will have free access to a standard chow diet and water during acclimatization period. After 15 days reversed light/dark cycle acclimatization animals are trained for fasting induced feed intake for 5 days till they show consistent feed intake. Grouping was done based on the monitored feed intake during the training days. On treatment day each group of animals are dosed with test compound or vehicle by appropriate routes of administration (orally or intraperitoneally). Exactly 30 min. after treatment, measured amount of standard chow diet is provided and recorded as O-min feed offered. Then subsequently 2, 4, 6 and 24 hour after O-min, feed intake is measured and the cumulative feed intakes are calculated. The change in cumulative feed intake as compared to vehicle treated control at each time point is calculated for test compound.

C57/BL6 mice = test: Oral glucose tolerance test (OGTT) in C57/BL6 mice; assay type: in vivo, mouse; settings: Mus musculus, 2 h, serum glucose AUC, single oral dose, glucose load 3 gm/kg, read-out: % reduction in AUC at 50 mg/kg
Description: Oral Glucose Tolerance Tests (OGTT) in C57/BL6 Mice:
C57/BL6 mice of 6-8 week age are used for this experiment. Animals are grouped based on non-fasting serum glucose levels and kept on fasting for overnight (day before OGTT). On the experiment day, […], 30 min post dosing animals are bled for basal glucose level estimation and at the same time glucose load (3 gm/kg) will be administered per orally. Blood is collected at time points corresponding to 20, 40, 60 and 120 min after glucose load administration. Serum is separated for determination of glucose levels and change in area under curve for glucose is calculated and provided in table 4 as % reduction in AUC.

[2] = 2 hour, read-out: % reduction in food in take, 2 hour
[3] = 4 hour, read-out: % reduction in food in take, 4 hour
[4] = 6 hour, read-out: % reduction in food in take, 6 hour
[5] = 24 hour, read-out: % reduction in food in take, 24 hour

| SMILES | EC50 [1] [nM] | inhibition in vivo at 25 mg/kg (Sprague Dawley rats; [2]) [%] | inhibition in vivo at 25 mg/kg (Sprague Dawley rats; [3]) [%] | inhibition in vivo at 25 mg/kg (Sprague Dawley rats; [4]) [%] | inhibition in vivo at 25 mg/kg (Sprague Dawley rats; [5]) [%] | inhibition in vivo at 50 mg/kg (Sprague Dawley rats; [2]) [%] | inhibition in vivo at 50 mg/kg (Sprague Dawley rats; [3]) [%] | inhibition in vivo at 50 mg/kg (Sprague Dawley rats; [4]) [%] | inhibition in vivo at 50 mg/kg (Sprague Dawley rats; [5]) [%] | inhibition in vivo at 50 mg/kg (C57/BL6 mice) [%] |
| --- | --- | --- | --- | --- | --- | --- | --- | --- | --- | --- |
| CCOC(=O)N1CCC(Oc2ncnc(Oc3ccc([C@H]4CO[S@@](=O)OC4)cc3)c2C)CC1 [Example 33, cis-ethyl 4-((5-methyl-6-(4-(2-oxido-1,3,2-dioxathian-5-yl)phenoxy)pyrimidin-4-yl)oxy)piperidine-1-carboxylate] | 86 | 70 | 44 | 24 | 21 |  |  |  |  | 30 |
| CCOC(=O)N1CCC(Oc2ncnc(Oc3ccc([C@H]4CO[S@](=O)OC4)cc3)c2C)CC1 [Example 34, trans-ethyl 4-((5-methyl-6-(4-(2-oxido-1,3,2-dioxathian-5-yl)phenoxy)pyrimidin-4-yl)oxy)piperidine-1-carboxylate] | 93 | 45 | 30 | 19 | 10 |  |  |  |  | 27 |
| Cc1c(Oc2ccc(C[C@H]3CO[S@](=O)OC3)cc2)ncnc1OC1CCN(C(=O)OCC(C)C)CC1 [Example 44, trans-isobutyl 4-((5-methyl-6-(4-((2-oxido-1,3,2-dioxathian-5-yl)methyl)phenoxy)pyrimidin-4-yl)oxy)piperidine-1-carboxylate] | 108 |  |  |  |  | 38 | 30 | 24 | 7 | 31 |

The remaining molecules from weak to strong by EC50 [1], led by results:

| EC50 [1] [nM] | SMILES | inhibition in vivo at 25 mg/kg (Sprague Dawley rats; [2]) [%] | inhibition in vivo at 25 mg/kg (Sprague Dawley rats; [3]) [%] | inhibition in vivo at 25 mg/kg (Sprague Dawley rats; [4]) [%] | inhibition in vivo at 25 mg/kg (Sprague Dawley rats; [5]) [%] | inhibition in vivo at 50 mg/kg (Sprague Dawley rats; [2]) [%] | inhibition in vivo at 50 mg/kg (Sprague Dawley rats; [3]) [%] | inhibition in vivo at 50 mg/kg (Sprague Dawley rats; [4]) [%] | inhibition in vivo at 50 mg/kg (Sprague Dawley rats; [5]) [%] | inhibition in vivo at 50 mg/kg (C57/BL6 mice) [%] |
| --- | --- | --- | --- | --- | --- | --- | --- | --- | --- | --- |
| 86 | CCc1cnc(N2CCC(Oc3ncnc(Oc4ccc(C[C@H]5CO[S@](=O)OC5)cc4)c3C)CC2)nc1 [Example 32, trans-5-(4-((6-((1-(5-ethylpyrimidin-2-yl)piperidin-4-yl)oxy)-5-methylpyrimidin-4-yl)oxy)benzyl)-1,3,2-dioxathiane 2-oxide] | 50 | 37 | 32 | 18 |  |  |  |  | 41 |
| 57 | Cc1c(Oc2ccc([C@H]3CO[S@](=O)OC3)cc2)ncnc1OC1CCN(C(=O)OCC(C)C)CC1 [Example 28, trans-isobutyl 4-((5-methyl-6-(4-(2-oxido-1,3,2-dioxathian-5-yl)phenoxy)pyrimidin-4-yl)oxy)piperidine-1-carboxylate] | 67 | 59 | 40 | 24 | 24 | 19 | 9 | 2 | 40 |
